Experimental data taken from patent US6444644B1, “Anticoagulant peptide fragments derived from apolipoprotein B-100” (University College London, priority 1996, dated 2002).
pKd: −log10 of the molar value. No end group written: not given here.

Legend:
Assay type in all cases: biochemical
thromboplastin [1] = target: T1, thromboplastin (Homo sapiens, UniProt P13726); assay: Time-course inhibition of thromboplastin procoagulant activity (one-stage prothrombin time and two-stage amidolytic assay); details: 500 nM, thromboplastin 100 nM (10 U/ml), 37° C.
T1 construct: purchased Gamidor Ltd. (Oxfordshire, U.K.)
T1 sequence (P13726 33-295): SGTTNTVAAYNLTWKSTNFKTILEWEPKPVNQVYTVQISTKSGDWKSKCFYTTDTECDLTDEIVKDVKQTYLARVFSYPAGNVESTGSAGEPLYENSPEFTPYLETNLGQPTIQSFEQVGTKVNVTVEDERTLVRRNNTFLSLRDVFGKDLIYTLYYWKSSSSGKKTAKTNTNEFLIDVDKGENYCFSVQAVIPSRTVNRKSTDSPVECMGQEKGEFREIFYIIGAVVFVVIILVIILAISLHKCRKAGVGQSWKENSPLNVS
Description: The one stage prothrombin time assay was carried out by the addition of 100 μl of the sample to 100 μl of 25 mM CaCl2 solution and incubation prior to addition of 100 μl of control plasma. The clotting time was measured on the coagulometer. The two-stage amidolytic assay was carried according to published procedures. In all cases the thromboplastin activity was calculated from a standard curve prepared previously and the percentage inhibition was calculated as 100×[…].
The apolipoprotein B-100 control peptide (fragment 3358-3372) containing the sequence TRLTRKRGLKLATAL was reconstituted in distilled water to 1 mM. The freeze-dried samples were reconstituted in distilled water to a concentration of 1 mM. Two 200 μl samples of thromboplastin (10 U/ml) were incubated with 500 nM KRAD-14 or apolipoprotein B-100 control peptide at 37° C. for 45 min. Another set of 200 μl samples of thromboplastin (10 U/ml) were incubated with either 500 nM KRAD-98 or the chloramphenicol acetyltransferase control protein. […] Following the incubation the thromboplastin activity in all the samples was measured by means of the one-stage prothrombin time assay and the two-stage amidolytic assay and the percentage inhibition calculated against the control containing distilled water.
The above experiments were repeated using 1 ml samples containing recombinant thromboplastin (10 U/ml) mixed with either 500 nM KRAD-14, 500 nM KRAD-98 or 500 nM apolipoprotein B-100, reconstituted as described before. The concentrations used are equivalent to that of apolipoprotein B-100 in normal plasma. 100 μl of the each sample was removed immediately and assayed for thromboplastin activity, by means of the one-stage prothrombin time assay. The rest of the samples were incubated at 37° C. and further 100 μl samples were removed at intervals up to 120 min and measured as before. The percentage inhibition was calculated against a control sample of thromboplastin.
Three 1 ml samples containing recombinant thromboplastin (10 U/ml) were mixed with 500 nM KRAD-14 (solid square), 500 nM KRAD-98 (open square) or 500 nM apolipoprotein […] (triangle), reconstituted as described before. The concentrations used are equivalent to that of apolipoprotein B-100 in normal plasma. 100 μl of the each sample was removed immediately and assayed for thromboplastin activity, by means of the one-stage prothrombin time assay. The rest of the samples were incubated at 37° C. and further 100 μl samples were removed at intervals up to 120 min and measured as before. The thromboplastin activity was calculated from a standard curve prepared previously and the percentage inhibition was calculated as 100×[…]. The curves are typical of data from four sets of experiments.

[2] = test system: factor VII/thromboplastin; assay: Effect on activation and activity of factor VII (clotting in factor VII deficient plasma)
Description: In order to assess whether the action of KRAD-14 peptide was directed to the proteolytic activity of factor VIIa/thromboplastin or the activation of factor VII by interaction with thromboplastin, first thromboplastin (200 nM) and factor VII (200 nM) were incubated for 10 min in the presence of 25 mM CaCl2, prior to addition of KRAD-14 peptide and a further 10 min incubation. The samples were then assayed by addition to factor VII deficient plasma and measuring the clotting time. Appropriate controls devoid of KRAD-14 peptide were included in each experiment.
In order to assess whether the action of KRAD-14 peptide was directed to the proteolytic activity of factor VIIa/thromboplastin or the activation of factor VII by interaction with thromboplastin, first thromboplastin (200 nM) and factor VII (200 nM) were incubated for 10 min in the presence of 25 mM CaCl2, prior to addition of […] (500 nM) and a further 10 min incubation. In the second experiment thromboplastin, factor VII and factor Xa (100 nM) were pre-incubated for 10 min in the presence of 25 mM CaCl2, prior to addition of KRAD-14 peptide and a further 10 min incubation. The samples were then assayed by addition to factor VII deficient plasma and measuring the clotting time. […] Conversely, it was able to inhibit the activation of the pro-enzyme (inhibition=74%+8) (Table 2). […]

thromboplastin [3] = target: T1, thromboplastin; assay: Effect of KRAD-14 concentration on thromboplastin inhibition (one-stage prothrombin time assay)
Description: The synthetic KRAD-14 peptide was reconstituted in distilled water at 1 mM. Aliquots of recombinant thromboplastin were incubated, at 37° C. with a KRAD-14 at concentration range 10-5000 nM (final concentration) for 1 min prior to assaying using the one-stage prothrombin time assay. In addition, samples of thromboplastin (10 U/ml) were incubated with synthetic KRAD-14 at concentrations ranging from 1-100 μM (final concentration) prior to assaying using the one-stage prothrombin time assay.
Aliquots of recombinant thromboplastin were incubated, at 37° C. with a KRAD-14 at concentration range 10-5000 nM (final concentration) for 1 min prior to assaying using the one-stage prothrombin time assay. The percentage inhibition was calculated as 100×([…])/Initial activity. The experiment was performed in triplicate.
Samples of thromboplastin (10 U/ml) were incubated with synthetic KRAD-14 concentration ranging 1-100 μM (final concentration) prior to assaying using the one-stage prothrombin time assay. The percentage inhibition was calculated as 100×([…])/Initial activity. The experiment was performed in triplicate.
Aliquots (1 ml) of recombinant thromboplastin (100 nM) were incubated at 37° C. with a KRAD-14 peptide at concentration range 50 (♦), 100 (▾), 200 (▪), 300 (⋄) and 500 nM (□) (final concentration). 100 μl of the each sample was removed immediately and assayed for thromboplastin activity, by means of the one-stage prothrombin time assay. The rest of the samples were incubated at 37° C. and further 100 μl samples were removed at intervals up to 40 min and measured. The percentage inhibition was calculated as 100×(Initial activity-Residual activity)/Initial activity. The data were obtained from 3 separate experiments.

thromboplastin [4] = target: T1, thromboplastin; assay: Inhibition of thromboplastin in the presence of plasma
Description: […] The samples were then assayed by addition of 100 μl of […] CaCl2 solution and measurement on the coagulometer. The percentage inhibition in each case calculated against a similarly treated sample, containing thromboplastin only.

Sequence: KAQSKKNKHRHSTT [KRAD-14]
- inhibition at 0.5 µM (thromboplastin [1]; 2 min incubation): 90%
- inhibition at 0.5 µM (thromboplastin [1]; 4 min incubation (maximum)): 98%
- inhibition of the activity of factor VIIa ([2]; peptide 500 nM added after pre-incubation, further 10 min, factor VII deficient plasma): 12%
- inhibition of the activation of the pro-enzyme (factor VII) ([2]; thromboplastin 200 nM, factor VII 200 nM, 25 mM CaCl2, peptide 500 nM, 10 min): 74%
- lowest concentration effective in inhibiting thromboplastin (thromboplastin [3]; 1 min preincubation at 37° C.): 50 nM
- inhibition of thromboplastin compared with the recombinant peptide (in words) (thromboplastin [3]; synthetic peptide): inhibitory towards thromboplastin with similar effectiveness as the recombinant peptide
- pKd (thromboplastin [3]; thromboplastin 100 nM, KRAD-14 peptide 1-5000 nM, 1 min at 37° C., read-out: Kdapp, inhibition of thromboplastin): 7.43
- influence of plasma on the ability to inhibit thromboplastin activity (in words) (thromboplastin [4]; plasma included during the incubation prior to assaying, peptide 500 nM): did not significantly affect
- inhibition of thromboplastin activity in the presence of plasma (thromboplastin [4]; plasma present, 37° C., 2 min incubation): 74%
